From patent US10906873B2, “Substituted cyclic amides as herbicides” (FMC Corporation, priority 2015, dated 2021)

What was measured:
Format in all cases: in vivo
[1] = test system: barnyardgrass (Echinochloa crus-galli); test: Test A preemergence, barnyardgrass; conditions: 0 to 100 scale
Source text: (§1) Seeds of plant species selected from barnyardgrass (Echinochloa crus-galli), crabgrass (large crabgrass, Digitaria sanguinalis), kochia (Kochia scoparia), ragweed (common ragweed, Ambrosia elatior), morningglory (Ipomoea spp.), velvetleaf (Abutilon theophrasti), ryegrass, It. (Italian ryegrass, Lolium multiflorum), foxtail, giant (giant foxtail, Setaria faberii), wheat (Triticum aestivum), corn (Zea mays), and pigweed (Amaranthus retroflexus), were planted into a blend of loam soil and sand and treated preemergence with a directed soil spray using test chemicals formulated in a non-phytotoxic solvent mixture which included a surfactant. At the same time, plants selected from these crop and weed species and also blackgrass (Alopecurus myosuroides), and galium (catchweed bedstraw, Galium aparine), were planted in pots containing the same blend of loam soil and sand and treated with postemergence applications of test chemicals formulated in the same manner. Plants ranged in height from 2 to 10 cm and were in the one- to two-leaf stage for the postemergence treatment. Treated plants and untreated controls were maintained in a greenhouse for approximately 10 d, after which time all treated plants were compared to untreated controls and visually evaluated for injury. Plant response ratings, summarized in Table A, are based on a 0 to 100 scale where 0 is no effect and 100 is complete control. A dash (-) response means no test result.

kochia (Kochia scoparia) [2] = test: Test A preemergence, kochia; conditions: 0 to 100 scale
Source text: as §1

[3] = test system: ragweed (common ragweed, Ambrosia elatior); test: Test A preemergence, ragweed; conditions: 0 to 100 scale
Source text: as §1

[4] = test system: ryegrass, It. (Italian ryegrass, Lolium multiflorum); test: Test A preemergence, ryegrass, It.; conditions: 0 to 100 scale
Source text: as §1

[5] = test system: foxtail, giant (giant foxtail, Setaria faberii); test: Test A preemergence, foxtail, giant; conditions: 0 to 100 scale
Source text: as §1

[6] = test system: pigweed (Amaranthus retroflexus); test: Test A preemergence, pigweed; conditions: 0 to 100 scale
Source text: as §1

[7] = test system: barnyardgrass (Echinochloa crus-galli); test: Test A postemergence, barnyardgrass; conditions: 0 to 100 scale
Source text: as §1

kochia (Kochia scoparia) [8] = test: Test A postemergence, kochia; conditions: 0 to 100 scale
Source text: as §1

[9] = test system: ragweed (common ragweed, Ambrosia elatior); test: Test A postemergence, ragweed; conditions: 0 to 100 scale
Source text: as §1

[10] = test system: ryegrass, It. (Italian ryegrass, Lolium multiflorum); test: Test A postemergence, ryegrass, It.; conditions: 0 to 100 scale
Source text: as §1

[11] = test system: foxtail, giant (giant foxtail, Setaria faberii); test: Test A postemergence, foxtail, giant; conditions: 0 to 100 scale
Source text: as §1

[12] = test system: wheat (Triticum aestivum); test: Test A postemergence, wheat; conditions: 0 to 100 scale
Source text: as §1

corn (Zea mays) = test: Test A postemergence, corn; conditions: 0 to 100 scale
Source text: as §1

[13] = test system: pigweed (Amaranthus retroflexus); test: Test A postemergence, pigweed; conditions: 0 to 100 scale
Source text: as §1

[14] = test system: blackgrass (Alopecurus myosuroides); test: Test A postemergence, blackgrass; conditions: 0 to 100 scale
Source text: as §1

[15] = test system: galium (catchweed bedstraw, Galium aparine); test: Test A postemergence, galium; conditions: 0 to 100 scale
Source text: as §1

[16] = test system: barnyardgrass (Echinochloa crus-galli); test: Test B flooded paddy test, barnyardgrass; conditions: Flood, scale of 0 to 100 where 0 is no effect and 100 is complete control, 13 to 15 d
Method: (§2) Plant species in the flooded paddy test selected from rice (Oryza sativa), sedge, umbrella (small-flower umbrella sedge, Cyperus difformis), ducksalad (Heteranthera limosa), and barnyardgrass (Echinochloa crus-galli) were grown to the 2-leaf stage for testing. At time of treatment, test pots were flooded to 3 cm above the soil surface, treated by application of test compounds directly to the paddy water, and then maintained at that water depth for the duration of the test. Treated plants and controls were maintained in a greenhouse for 13 to 15 d, after which time all species were compared to controls and visually evaluated. Plant response ratings, summarized in Table B, are based on a scale of 0 to 100 where 0 is no effect and 100 is complete control. A dash (-) response means no test result.

[17] = test system: ducksalad (Heteranthera limosa); test: Test B flooded paddy test, ducksalad; conditions: Flood, scale of 0 to 100 where 0 is no effect and 100 is complete control, 13 to 15 d
Method: as §2

rice (Oryza sativa) = test: Test B flooded paddy test, rice; conditions: Flood, scale of 0 to 100 where 0 is no effect and 100 is complete control, 13 to 15 d
Method: as §2

[18] = test system: sedge, umbrella (small-flower umbrella sedge, Cyperus difformis); test: Test B flooded paddy test, sedge, umbrella; conditions: Flood, scale of 0 to 100 where 0 is no effect and 100 is complete control, 13 to 15 d
Method: as §2

SMILES	Plant response rating, Barnyardgrass ([1]; 125 g ai/ha)	Plant response rating, Barnyardgrass ([1]; 500 g ai/ha)	Plant response rating, Kochia (kochia (Kochia scoparia) [2]; 125 g ai/ha)	Plant response rating, Kochia (kochia (Kochia scoparia) [2]; 500 g ai/ha)	Plant response rating, Ragweed ([3]; 125 g ai/ha)	Plant response rating, Ragweed ([3]; 500 g ai/ha)	Plant response rating, Ryegrass, It. ([4]; 125 g ai/ha)	Plant response rating, Ryegrass, It. ([4]; 500 g ai/ha)	Plant response rating, Foxtail, Giant ([5]; 125 g ai/ha)	Plant response rating, Foxtail, Giant ([5]; 500 g ai/ha)	Plant response rating, Pigweed ([6]; 125 g ai/ha)	Plant response rating, Pigweed ([6]; 500 g ai/ha)	Plant response rating, Barnyardgrass ([7]; 125 g ai/ha)	Plant response rating, Barnyardgrass ([7]; 500 g ai/ha)	Plant response rating, Kochia (kochia (Kochia scoparia) [8]; 125 g ai/ha)	Plant response rating, Kochia (kochia (Kochia scoparia) [8]; 500 g ai/ha)	Plant response rating, Ragweed ([9]; 125 g ai/ha)	Plant response rating, Ragweed ([9]; 500 g ai/ha)	Plant response rating, Ryegrass, It. ([10]; 125 g ai/ha)	Plant response rating, Ryegrass, It. ([10]; 500 g ai/ha)	also measured
Cc1cccc(C#CC2CNC(=O)C2C(=O)Nc2cccc(F)c2F)c1 (stereo not drawn) [Compound 22]	60	80	0	20	0	0	0	0	50	70	0	0	40	70	0	0	0	0	0	0	Plant response rating, Foxtail, Giant ([11]; 125 g ai/ha): 20; Plant response rating, Foxtail, Giant ([11]; 500 g ai/ha): 50; Plant response rating, Wheat ([12]; 125 g ai/ha): 0; Plant response rating, Wheat ([12]; 500 g ai/ha): 0; Plant response rating, Corn (corn (Zea mays); 125 g ai/ha): 0; Plant response rating, Corn (corn (Zea mays); 500 g ai/ha): 20; Plant response rating, Pigweed ([13]; 125 g ai/ha): 0; Plant response rating, Pigweed ([13]; 500 g ai/ha): 0; Plant response rating, Blackgrass ([14]; 125 g ai/ha): 0; Plant response rating, Blackgrass ([14]; 500 g ai/ha): 0; Plant response rating, Galium ([15]; 125 g ai/ha): 0; Plant response rating, Galium ([15]; 500 g ai/ha): 20; Plant response rating, Barnyardgrass ([16]; 250 g ai/ha): 0; Plant response rating, Ducksalad ([17]; 250 g ai/ha): 70; Plant response rating, Rice (rice (Oryza sativa); 250 g ai/ha): 0; Plant response rating, Sedge, Umbrella ([18]; 250 g ai/ha): 0
O=C1NCC(Cc2cccc(F)c2F)C1C(=O)Nc1ccccc1C(F)(F)F (stereo not drawn) [Compound 10]	0	0	0	0	0	0	0	0	0	0	0	0	0	0	0	0	0	0	0	0	Plant response rating, Foxtail, Giant ([11]; 125 g ai/ha): 0; Plant response rating, Foxtail, Giant ([11]; 500 g ai/ha): 0; Plant response rating, Wheat ([12]; 125 g ai/ha): 0; Plant response rating, Wheat ([12]; 500 g ai/ha): 0; Plant response rating, Corn (corn (Zea mays); 125 g ai/ha): 0; Plant response rating, Corn (corn (Zea mays); 500 g ai/ha): 0; Plant response rating, Pigweed ([13]; 125 g ai/ha): 0; Plant response rating, Pigweed ([13]; 500 g ai/ha): 0; Plant response rating, Blackgrass ([14]; 125 g ai/ha): 0; Plant response rating, Blackgrass ([14]; 500 g ai/ha): 0; Plant response rating, Galium ([15]; 125 g ai/ha): 0; Plant response rating, Galium ([15]; 500 g ai/ha): 0; Plant response rating, Barnyardgrass ([16]; 500 g ai/ha): 0; Plant response rating, Ducksalad ([17]; 500 g ai/ha): 0; Plant response rating, Rice (rice (Oryza sativa); 500 g ai/ha): 0; Plant response rating, Sedge, Umbrella ([18]; 500 g ai/ha): 0
O=C1NCC(C#Cc2ccc(F)cc2)C1C(=O)Nc1ccc(F)c(F)c1F (stereo not drawn) [Compound 17]	20	50	0	0	0	0	0	0	30	90	0	20	20	90	0	0	0	0	0	0	Plant response rating, Foxtail, Giant ([11]; 125 g ai/ha): 0; Plant response rating, Foxtail, Giant ([11]; 500 g ai/ha): 50; Plant response rating, Wheat ([12]; 125 g ai/ha): 0; Plant response rating, Wheat ([12]; 500 g ai/ha): 0; Plant response rating, Corn (corn (Zea mays); 125 g ai/ha): 0; Plant response rating, Corn (corn (Zea mays); 500 g ai/ha): 0; Plant response rating, Pigweed ([13]; 125 g ai/ha): 0; Plant response rating, Pigweed ([13]; 500 g ai/ha): 0; Plant response rating, Blackgrass ([14]; 125 g ai/ha): 0; Plant response rating, Blackgrass ([14]; 500 g ai/ha): 0; Plant response rating, Galium ([15]; 125 g ai/ha): 0; Plant response rating, Galium ([15]; 500 g ai/ha): 0; Plant response rating, Barnyardgrass ([16]; 250 g ai/ha): 0; Plant response rating, Ducksalad ([17]; 250 g ai/ha): 70; Plant response rating, Rice (rice (Oryza sativa); 250 g ai/ha): 0; Plant response rating, Sedge, Umbrella ([18]; 250 g ai/ha): 0
